Results taken from patent US20230183226A1, “AKT3 MODULATORS” (Georgiamune LLC, priority 2020, published 2023).

Molecular target: Akt3 (Homo sapiens, UniProt Q9Y243)
Assay: Akt3 inhibition and activation activity (Foxp3 induction assay / Jurkat-FoxP3 luciferase reporter assay)
Format: cell-based
Details: Table 2
Experimental: Sorted or enriched (Miltenyi magnetic separation) CD4 conventional T cells (Tconvs−CD4+/CD25) from C57/Bl6 mice were used for the induction of iTregs. A 10 µg/mL plate-bound anti-CD3 antibody (50 ul per well for 96-well plate), […] of soluble anti-CD28 antibody, 100 IU/mL of IL2 and 5 ng/mL of TGF-β in absence or presence of different concentrations of drug (usually titrating from 0.01 uM to 10 uM) were used. As negative control for induction, samples without TGF-β were used.
After 3 days of culture in presence of stimulation, TGF-β and drug, cells were stained with fixable live/dead cell stain (Life Technologies, NY) for gating and exclusion of toxic doses. The mouse Foxp3 buffer kit was used to fix and permeabilize cells according to the manufacturer's instructions (BD Bioscience, San Jose, Calif.). The anti-CD4 antibody and anti-Foxp3 antibody were used to stain the cells. After staining, cells were acquired using flow cytometer.
Cells Culture Process: Prepare a 50 ml conical tube and a T-25 culture flask with 5 ml of pre-warmed Thaw Medium 2 (no G418). Quickly thaw cells in a 37° C. water bath with constant and slow agitation. Immediately transfer the entire contents to the conical tube with Thaw Medium 2 (no G418) and centrifuge the cells at 200×g for 3 minutes.

Chain of Akt3 (Q9Y243 2-479): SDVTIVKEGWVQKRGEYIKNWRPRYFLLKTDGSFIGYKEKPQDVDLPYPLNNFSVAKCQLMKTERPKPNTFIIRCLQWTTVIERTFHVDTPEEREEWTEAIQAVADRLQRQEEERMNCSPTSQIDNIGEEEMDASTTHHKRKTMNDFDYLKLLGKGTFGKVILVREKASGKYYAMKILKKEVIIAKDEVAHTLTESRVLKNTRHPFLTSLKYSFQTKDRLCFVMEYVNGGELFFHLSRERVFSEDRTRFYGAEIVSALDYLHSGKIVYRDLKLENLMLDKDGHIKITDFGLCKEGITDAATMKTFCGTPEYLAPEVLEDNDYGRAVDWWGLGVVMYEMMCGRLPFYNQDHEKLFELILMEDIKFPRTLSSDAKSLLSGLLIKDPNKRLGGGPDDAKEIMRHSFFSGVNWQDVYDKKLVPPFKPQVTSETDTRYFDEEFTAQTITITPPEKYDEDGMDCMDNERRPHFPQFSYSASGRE

6-(2,6-dimethylmorpholino)-2-methyl-N-(4-(5-(2-methylpyridin-4-ylamino)-1H-benzo[d]imidazol-2-yl)phenyl)quinolin-4-amine [Compound 128]
EC50: < 50 nM
